Test results: ChEMBL document CHEMBL5728686, “MK2 inhibitors and uses thereof” (2021)
pEC50, pIC50: −log10 of the molar value.

Target: MAP kinase-activated protein kinase 2 (Homo sapiens, UniProt P49137)
Assay: Kinase reactions were started with the addition of 40 μL of MK-2 enzyme and monitored every 71 seconds for 30-240 minutes at λex360/λem485 in a Synergy2, Synergy4 or Synergy H4 plate reader from BioTek (Winooski, Vt.). […] Initial velocity (0 minutes to +30 minutes) from each reaction was estimated from the slope of a plot of relative fluorescence units vs time (minutes) and normalized to the no enzyme and no inhibitor control groups for % Inhibition. The resulting % Inhibition values were then plotted against inhibitor concentration to estimate IC50 from log[Inhibitor] vs Response, Variable Slope model in GraphPad Prism from GraphPad Software (San Diego, Calif.).

Sequence of MAP kinase-activated protein kinase 2 (P49137 whole entry): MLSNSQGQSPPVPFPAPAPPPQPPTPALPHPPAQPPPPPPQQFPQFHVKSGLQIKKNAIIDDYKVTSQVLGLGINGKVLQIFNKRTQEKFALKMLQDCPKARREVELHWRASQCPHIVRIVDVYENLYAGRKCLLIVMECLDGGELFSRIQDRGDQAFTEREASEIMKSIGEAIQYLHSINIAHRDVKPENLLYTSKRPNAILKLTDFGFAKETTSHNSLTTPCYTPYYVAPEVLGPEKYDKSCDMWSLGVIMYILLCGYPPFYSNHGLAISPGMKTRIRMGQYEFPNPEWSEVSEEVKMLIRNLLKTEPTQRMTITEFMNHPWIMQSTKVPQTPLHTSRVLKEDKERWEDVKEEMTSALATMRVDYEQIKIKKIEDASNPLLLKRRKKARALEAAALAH

| Structure (SMILES) | pEC50 | pIC50 |
| --- | --- | --- |
| C=CC(=O)Nc1cc(-c2cc3c(ccc4c5c([nH]c43)CCC5=O)cn2)ccc1C | > 7.00 | > 7.00 |
| C=CC(=O)N1CCOc2ccc(-c3cc4c(cn3)CCc3c-4[nH]c4c3C(=O)NCC4)cc21 | – | > 7.00 |
| C=CC(=O)Nc1cc(NC(=O)c2ccc3sc4c(c3c2)NC[C@@H](C)NC4=O)ccc1C1CCN(C)CC1 | > 7.00 | > 7.00 |
